Measured values reported in ChEMBL document CHEMBL5154936, “Scaffold Hopping Strategy to Identify Prostanoid EP4 Receptor Antagonists for Cancer Immunotherapy” (J Med Chem, 2022).
In brackets after ≈: the same amount, converted by molar mass.

Experiments:
[1] = Kinetic solubility of compound in simulated intestinal fluid at pH 6.8 measured after 24 hrs by HPLC analysis; assay type: physicochemical; conditions: read-out: Kinetic_solubility
CYP2E1 = CYP2E1 (Homo sapiens, UniProt P05181); assay: Inhibition of CYP2E1 (unknown origin) at 20 uM; assay type: ADME
Chain of CYP2E1 (P05181 whole entry): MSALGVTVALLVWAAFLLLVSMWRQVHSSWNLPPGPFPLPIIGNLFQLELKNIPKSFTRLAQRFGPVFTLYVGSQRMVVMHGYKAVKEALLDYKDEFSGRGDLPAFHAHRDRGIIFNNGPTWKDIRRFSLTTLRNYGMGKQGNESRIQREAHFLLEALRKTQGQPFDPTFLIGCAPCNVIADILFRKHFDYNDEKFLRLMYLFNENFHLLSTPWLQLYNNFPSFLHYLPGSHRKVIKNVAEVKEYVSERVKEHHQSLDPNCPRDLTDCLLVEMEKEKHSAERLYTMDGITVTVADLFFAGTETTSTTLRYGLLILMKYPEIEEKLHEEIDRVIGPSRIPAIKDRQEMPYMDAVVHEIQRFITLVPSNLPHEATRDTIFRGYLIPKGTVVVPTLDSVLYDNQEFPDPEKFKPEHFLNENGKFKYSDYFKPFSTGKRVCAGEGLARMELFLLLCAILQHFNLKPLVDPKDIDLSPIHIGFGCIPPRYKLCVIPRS

[2] = target: Prostaglandin E2 receptor EP2 subtype (Homo sapiens, UniProt P43116); assay: Antagonist activity at human EP2 receptor transfected in CHO/Galpha16 cells preincubated for 15 mins followed by PGE2 addition by calcium flux assay; assay type: functional, cell-based
Chain of Prostaglandin E2 receptor EP2 subtype (P43116 whole entry): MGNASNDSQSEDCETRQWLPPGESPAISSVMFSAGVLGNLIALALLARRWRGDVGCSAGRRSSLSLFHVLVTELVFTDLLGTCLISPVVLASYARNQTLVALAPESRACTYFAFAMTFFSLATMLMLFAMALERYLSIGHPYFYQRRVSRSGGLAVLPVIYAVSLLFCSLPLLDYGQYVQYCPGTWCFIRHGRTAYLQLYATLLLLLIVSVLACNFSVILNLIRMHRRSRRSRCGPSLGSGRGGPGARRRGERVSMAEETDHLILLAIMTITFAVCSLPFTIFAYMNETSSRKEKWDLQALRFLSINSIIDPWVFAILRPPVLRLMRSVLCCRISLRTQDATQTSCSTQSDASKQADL

[3] = Clearance in BALB/c mouse at 1 mg/kg, iv measured upto 24 hrs by LC-MS/MS analysis; assay type: ADME, organism-based; conditions: in vivo
[4] = Cmax in BALB/c mouse at 1 mg/kg, iv measured upto 24 hrs by LC-MS/MS analysis; assay type: ADME, organism-based; parameters: time < 24 hrs, dose 1 mg/kg, route iv; conditions: in vivo
[5] = Metabolic stability in mouse liver microsomes assessed as half life; assay type: ADME, Microsome
[6] = Metabolic stability in human liver microsomes assessed as parent compound remaining at 10 uM measured after 60 mins; assay type: ADME, Microsome; conditions: read-out: Stability
[7] = Metabolic stability in human liver microsomes assessed as intrinsic clearance; assay type: ADME, Microsome; conditions: read-out: CLH
CYP1A2 = target: T1, CYP1A2 (Homo sapiens, UniProt P05177); assay: Inhibition of CYP1A2 (unknown origin) at 20 uM; assay type: ADME
T1 sequence (P05177 whole entry): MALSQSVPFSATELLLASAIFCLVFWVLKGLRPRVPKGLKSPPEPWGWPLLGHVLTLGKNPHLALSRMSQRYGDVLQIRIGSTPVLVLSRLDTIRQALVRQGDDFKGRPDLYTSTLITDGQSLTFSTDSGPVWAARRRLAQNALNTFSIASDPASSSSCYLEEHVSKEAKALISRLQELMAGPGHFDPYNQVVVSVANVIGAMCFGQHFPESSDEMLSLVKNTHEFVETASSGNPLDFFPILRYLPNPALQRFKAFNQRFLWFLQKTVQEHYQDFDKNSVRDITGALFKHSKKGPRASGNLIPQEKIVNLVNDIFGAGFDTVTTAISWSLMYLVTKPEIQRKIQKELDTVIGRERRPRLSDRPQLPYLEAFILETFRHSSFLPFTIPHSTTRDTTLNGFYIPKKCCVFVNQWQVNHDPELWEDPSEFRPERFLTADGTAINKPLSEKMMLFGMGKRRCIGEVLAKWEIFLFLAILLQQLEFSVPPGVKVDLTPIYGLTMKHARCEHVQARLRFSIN

[8] = Metabolic stability in mouse liver microsomes assessed as parent compound remaining at 10 uM measured after 60 mins; assay type: ADME, Microsome; conditions: read-out: Stability
[9] = target: T2, Prostaglandin E2 receptor EP1 subtype (Homo sapiens, UniProt P34995); assay: Antagonist activity at human EP1 receptor transfected in CHO/Galpha16 cells preincubated for 15 mins followed by PGE2 addition by calcium flux assay; assay type: functional, cell-based
T2 sequence (P34995 whole entry): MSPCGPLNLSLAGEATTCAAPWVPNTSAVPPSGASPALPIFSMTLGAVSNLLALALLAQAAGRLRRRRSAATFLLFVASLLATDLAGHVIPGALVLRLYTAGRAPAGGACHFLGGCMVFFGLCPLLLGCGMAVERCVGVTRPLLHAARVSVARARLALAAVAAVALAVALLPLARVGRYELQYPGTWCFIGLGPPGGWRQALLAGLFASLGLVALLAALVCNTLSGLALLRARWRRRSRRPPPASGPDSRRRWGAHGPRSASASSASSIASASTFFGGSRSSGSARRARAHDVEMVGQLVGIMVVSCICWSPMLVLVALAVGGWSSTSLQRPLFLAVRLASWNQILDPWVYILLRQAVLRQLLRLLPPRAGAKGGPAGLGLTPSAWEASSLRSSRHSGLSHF

[10] = AUC (0 to 24 hrs) in BALB/c mouse at 1 mg/kg, iv measured upto 24 hrs by LC-MS/MS analysis; assay type: ADME, organism-based; parameters: dose 1 mg/kg, time < 24 hrs, route iv; conditions: in vivo
[11] = Plasma protien binding of the compound incubated for 24 hrs by equilibrium dialysis method; assay type: ADME, cell-free; conditions: read-out: PPB (converted)
[12] = target: Voltage-gated inwardly rectifying potassium channel KCNH2 (Homo sapiens, UniProt Q12809); assay: Inhibition of human ERG potassium channel transfected in HEK293 cells by whole-cell patch clamp assay; assay type: toxicity, cell-based
Chain of Voltage-gated inwardly rectifying potassium channel KCNH2 (Q12809 whole entry): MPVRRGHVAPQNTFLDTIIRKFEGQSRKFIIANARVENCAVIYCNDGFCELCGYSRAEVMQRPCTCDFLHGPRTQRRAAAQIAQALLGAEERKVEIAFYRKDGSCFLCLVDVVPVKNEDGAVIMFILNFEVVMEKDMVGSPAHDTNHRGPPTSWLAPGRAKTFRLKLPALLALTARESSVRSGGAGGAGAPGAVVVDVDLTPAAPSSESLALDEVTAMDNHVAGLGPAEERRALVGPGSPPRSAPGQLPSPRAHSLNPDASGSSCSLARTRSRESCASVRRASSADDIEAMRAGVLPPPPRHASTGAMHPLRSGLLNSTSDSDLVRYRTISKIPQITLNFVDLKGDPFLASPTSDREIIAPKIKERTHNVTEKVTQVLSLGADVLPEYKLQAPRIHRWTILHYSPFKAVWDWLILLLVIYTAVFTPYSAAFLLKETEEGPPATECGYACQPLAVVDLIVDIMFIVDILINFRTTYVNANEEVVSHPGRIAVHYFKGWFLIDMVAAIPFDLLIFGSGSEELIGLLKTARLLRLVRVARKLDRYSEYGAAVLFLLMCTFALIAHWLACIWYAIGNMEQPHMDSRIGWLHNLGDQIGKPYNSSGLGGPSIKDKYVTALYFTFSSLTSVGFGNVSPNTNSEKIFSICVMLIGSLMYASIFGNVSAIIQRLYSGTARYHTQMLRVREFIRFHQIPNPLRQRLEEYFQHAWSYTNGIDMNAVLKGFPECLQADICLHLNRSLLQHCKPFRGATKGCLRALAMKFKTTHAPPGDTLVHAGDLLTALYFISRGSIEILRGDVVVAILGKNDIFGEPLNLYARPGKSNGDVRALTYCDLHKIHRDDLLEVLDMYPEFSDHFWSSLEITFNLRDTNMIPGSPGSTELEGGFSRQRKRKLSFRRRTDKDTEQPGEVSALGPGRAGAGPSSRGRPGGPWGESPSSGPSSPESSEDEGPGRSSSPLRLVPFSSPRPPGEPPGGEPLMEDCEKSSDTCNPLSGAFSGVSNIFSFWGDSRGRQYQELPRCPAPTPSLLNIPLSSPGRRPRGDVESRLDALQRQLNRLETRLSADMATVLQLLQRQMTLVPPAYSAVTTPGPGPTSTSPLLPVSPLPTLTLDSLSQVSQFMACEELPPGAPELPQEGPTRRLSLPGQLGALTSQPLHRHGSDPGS

[13] = target: Prostaglandin E2 receptor EP4 subtype (Mus musculus, UniProt P32240); assay: Antagonist activity at mouse EP4 receptor transfected in CHO/Galpha16 cells preincubated for 15 mins followed by PGE2 addition by calcium flux assay; assay type: functional, cell-based
Chain of Prostaglandin E2 receptor EP4 subtype (P32240 whole entry): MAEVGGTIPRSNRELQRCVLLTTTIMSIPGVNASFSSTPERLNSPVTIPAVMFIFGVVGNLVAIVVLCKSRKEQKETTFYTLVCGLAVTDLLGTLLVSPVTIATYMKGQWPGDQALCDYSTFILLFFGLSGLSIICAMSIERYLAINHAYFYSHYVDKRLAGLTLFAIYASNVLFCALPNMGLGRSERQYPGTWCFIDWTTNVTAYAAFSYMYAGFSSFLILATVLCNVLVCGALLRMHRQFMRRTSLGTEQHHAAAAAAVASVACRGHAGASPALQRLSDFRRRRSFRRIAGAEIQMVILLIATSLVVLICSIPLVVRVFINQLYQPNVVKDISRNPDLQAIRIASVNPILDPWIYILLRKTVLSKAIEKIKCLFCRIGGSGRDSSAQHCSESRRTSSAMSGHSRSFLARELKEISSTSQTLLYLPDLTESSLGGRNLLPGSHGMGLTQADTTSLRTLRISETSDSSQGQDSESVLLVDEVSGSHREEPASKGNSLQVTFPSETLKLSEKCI

[14] = Volume of distribution at steady state in BALB/c mouse at 5 mg/kg, po measured upto 24 hrs by LC-MS/MS analysis; assay type: ADME, organism-based; conditions: in vivo
CYP2D6 = CYP2D6 (Homo sapiens, UniProt P10635); assay: Inhibition of CYP2D6 (unknown origin) at 20 uM; assay type: ADME
Chain of CYP2D6 (P10635 whole entry): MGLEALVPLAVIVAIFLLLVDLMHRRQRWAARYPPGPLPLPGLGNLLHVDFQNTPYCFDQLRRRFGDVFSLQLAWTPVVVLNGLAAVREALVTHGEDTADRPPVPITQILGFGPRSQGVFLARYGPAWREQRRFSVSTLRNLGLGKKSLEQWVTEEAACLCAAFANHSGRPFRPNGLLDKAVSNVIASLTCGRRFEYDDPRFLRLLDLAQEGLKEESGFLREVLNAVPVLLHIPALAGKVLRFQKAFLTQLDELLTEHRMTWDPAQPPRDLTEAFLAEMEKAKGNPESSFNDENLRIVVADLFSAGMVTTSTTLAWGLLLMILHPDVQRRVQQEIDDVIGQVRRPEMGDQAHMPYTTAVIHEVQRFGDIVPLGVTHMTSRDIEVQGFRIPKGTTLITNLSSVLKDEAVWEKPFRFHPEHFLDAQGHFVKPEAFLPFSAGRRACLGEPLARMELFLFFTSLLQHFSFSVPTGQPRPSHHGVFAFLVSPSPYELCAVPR

[15] = Half life in BALB/c mouse at 5 mg/kg, po measured upto 24 hrs by LC-MS/MS analysis; assay type: ADME, organism-based; conditions: in vivo
[16] = Half life in BALB/c mouse at 1 mg/kg, iv measured upto 24 hrs by LC-MS/MS analysis; assay type: ADME, organism-based; conditions: in vivo
CYP2C9 = CYP2C9 (Homo sapiens, UniProt P11712); assay: Inhibition of CYP2C9 (unknown origin) at 20 uM; assay type: ADME
Chain of CYP2C9 (P11712 whole entry): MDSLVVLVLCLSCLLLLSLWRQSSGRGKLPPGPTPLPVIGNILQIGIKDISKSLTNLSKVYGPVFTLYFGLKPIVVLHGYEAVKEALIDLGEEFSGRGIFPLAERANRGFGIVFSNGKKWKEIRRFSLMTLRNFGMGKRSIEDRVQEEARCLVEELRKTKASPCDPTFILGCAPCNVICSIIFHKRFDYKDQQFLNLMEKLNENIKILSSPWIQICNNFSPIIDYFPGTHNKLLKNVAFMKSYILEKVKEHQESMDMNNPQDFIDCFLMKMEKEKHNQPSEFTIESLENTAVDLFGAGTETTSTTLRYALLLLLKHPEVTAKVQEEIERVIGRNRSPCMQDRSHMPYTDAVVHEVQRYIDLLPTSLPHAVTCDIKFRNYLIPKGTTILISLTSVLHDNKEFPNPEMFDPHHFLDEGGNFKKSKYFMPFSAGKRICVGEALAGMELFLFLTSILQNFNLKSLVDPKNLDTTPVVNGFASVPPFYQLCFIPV

[17] = Metabolic stability in human liver microsomes assessed as half life; assay type: ADME, Microsome
[18] = target: T3, Prostaglandin E2 receptor EP3 subtype (Homo sapiens, UniProt P43115); assay: Antagonist activity at human EP3 receptor transfected in CHO/Galpha16 cells preincubated for 15 mins followed by PGE2 addition by calcium flux assay; assay type: functional, cell-based
T3 sequence (P43115 whole entry): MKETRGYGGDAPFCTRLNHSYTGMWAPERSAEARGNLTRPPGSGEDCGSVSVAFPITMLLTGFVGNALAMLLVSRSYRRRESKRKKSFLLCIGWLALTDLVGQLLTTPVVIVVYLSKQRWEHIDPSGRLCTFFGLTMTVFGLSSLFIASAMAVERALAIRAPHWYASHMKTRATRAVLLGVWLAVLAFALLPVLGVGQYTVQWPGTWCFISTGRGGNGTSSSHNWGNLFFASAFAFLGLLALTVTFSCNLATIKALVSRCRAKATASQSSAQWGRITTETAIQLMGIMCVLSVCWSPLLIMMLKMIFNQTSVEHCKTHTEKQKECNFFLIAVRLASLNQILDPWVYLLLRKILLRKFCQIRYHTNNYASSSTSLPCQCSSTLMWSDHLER

[19] = Metabolic stability in mouse liver microsomes assessed as intrinsic clearance; assay type: ADME, Microsome; conditions: read-out: CLH
[20] = Clearance in BALB/c mouse at 5 mg/kg, po measured upto 24 hrs by LC-MS/MS analysis; assay type: ADME, organism-based; conditions: in vivo
[21] = Kinetic solubility of compound in simulated gastric fluid at pH 1.2 measured after 24 hrs by HPLC analysis; assay type: physicochemical; conditions: read-out: Kinetic_solubility

| Compound | solubility kinetic at 24 h [1] [µM] | inhibition at 20 µM (CYP2E1) [%] | IC50 [2] [µM] | clearance [3] [mL/min/kg] | Cmax [4] [ng/mL] | half-life [5] [h] | remaining at 1 h, 10 µM [6] [%] | microsomal CLint [7] [µL/min/mg] | inhibition at 20 µM (CYP1A2) [%] | remaining at 1 h, 10 µM [8] [%] | IC50 [9] [µM] | AUC(0-t) at 24 h [10] [ng·h/mL] | fraction unbound at 24 h [11] | IC50 [12] [µM] | IC50 [13] [µM] | Vdss [14] [L/kg] | inhibition at 20 µM (CYP2D6) [%] | half-life [15] [h] | half-life [16] [h] | inhibition at 20 µM (CYP2C9) [%] | also measured |
| --- | --- | --- | --- | --- | --- | --- | --- | --- | --- | --- | --- | --- | --- | --- | --- | --- | --- | --- | --- | --- | --- |
| O=C(O)c1ccc(CNC(=O)c2c(Cc3ccc(F)cc3)sc3c2CCOC3)cc1 | > 200 | 31 | > 10 | 22.7 | 2840 | > 2.42 | 89.8 | < 9.6 | 46 | 92.1 | > 10 | 684 | 0.062 | > 30 | 0.0243 | 21.0327 | 65 | 6.2 | 3.2 | 44 | half-life [17]: > 2.42 h; IC50 [18]: > 10 µM; microsomal CLint [19]: < 9.6 µL/min/mg; CL/F [20]: 38.5 mL/min/kg; solubility kinetic at 24 h [21]: 2.97 µM (≈ 1.26 µg/mL) |
| C[C@H](NC(=O)c1c(Cc2cccc(C(F)(F)F)c2)sc2c1CCOC2)c1ccc(C(=O)O)cc1 | 182 (≈ 89.1 µg/mL) | 23 | > 10 | 24.6 | 2800 | > 2.42 | 84.6 | < 9.6 | 60 | 90.2 | > 10 | 642 | 0.034 | > 30 | 0.0028 | 14.5274 | 72 | 3.5 | 3.4 | 27 | half-life [17]: > 2.42 h; IC50 [18]: > 10 µM; microsomal CLint [19]: < 9.6 µL/min/mg; CL/F [20]: 49.9 mL/min/kg; solubility kinetic at 24 h [21]: < 1 µM |
